The results in this text go back to ChEMBL document CHEMBL1821720, “Discovery and hit-to-lead optimization of novel allosteric glucokinase activators” (Bioorg Med Chem Lett, 2011).

For one assay, the target named is T1, Hexokinase-4 (Homo sapiens) (UniProt P35557).
T1 sequence (whole entry): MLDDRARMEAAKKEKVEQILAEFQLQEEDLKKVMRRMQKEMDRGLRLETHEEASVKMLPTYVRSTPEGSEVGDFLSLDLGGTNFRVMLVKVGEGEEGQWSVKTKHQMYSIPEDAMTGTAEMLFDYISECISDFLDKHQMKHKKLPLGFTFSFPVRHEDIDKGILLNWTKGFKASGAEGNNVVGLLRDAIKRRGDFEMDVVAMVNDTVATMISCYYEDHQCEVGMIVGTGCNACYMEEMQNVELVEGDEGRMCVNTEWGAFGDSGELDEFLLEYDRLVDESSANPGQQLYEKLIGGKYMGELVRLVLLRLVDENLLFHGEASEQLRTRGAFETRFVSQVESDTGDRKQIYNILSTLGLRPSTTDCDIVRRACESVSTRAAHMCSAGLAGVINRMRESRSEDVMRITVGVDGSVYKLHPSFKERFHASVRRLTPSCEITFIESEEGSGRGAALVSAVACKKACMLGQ
In words: Activation of human recombinant glucokinase expressed in Escherichia coli coexpressing G6PDH at 10 uM using 5 mM glucose measured as ratio of enzyme activation in compound treated to Ro-28-1675 by G6PDH coupled continuous spectrophotometric assay.
With `O=C(Nc1nc(C2CCCCC2)cs1)c1ccccc1`, the Ratio worked out at 0.049.

Take `Cc1nc(C)c(C(=O)Nc2nc3c(s2)CCCC3)s1`: the Ratio came out at 0.01.

For the compound `Cc1oc(-c2cccc(C#N)c2)cc1C(=O)Nc1nc2c(s1)CCC2`, the Ratio was -0.002.

For the compound `Cc1cc(C(=O)Nc2nc3c(s2)C2CCC3C2)c(C)o1` (centres undefined), the Ratio stood at 0.059.

With `CCc1oc(-c2ccccc2C(C)=O)cc1C(=O)Nc1nc2c(s1)CCC2`, the Ratio came to 0.193.

In the case of `CNC(=O)CCc1cc(C(=O)Nc2nc3c(s2)CCC3)c(C)o1`, the Ratio is 0.032.

In the case of `Cc1cc(C(=O)Nc2nc3c(s2)CCC3(C)C)c(C)o1`, the Ratio was 0.001.

As for `Cc1oc(-c2ccccc2C(=O)N(C)C)cc1C(=O)Nc1nc2c(s1)CCC2`, the Ratio is -0.011.

For the compound `CC(=O)c1ccccc1-c1cc(C(=O)Nc2nc3c(s2)CCC3)c(C)o1`, the Ratio amounted to 0.329.

Turning to `Nc1ccc2sc(NC(=O)c3ccccc3)nc2c1`, the Ratio stood at 0.087.

Take `CC(=O)NCc1cc(C(=O)Nc2nc3c(s2)CCC3)c(C)o1`: the Ratio was determined as 0.105.

Take `Cc1cc(C(=O)Nc2nc3c(o2)CCCC3)c(C)o1`: the Ratio is -0.025.

With `O=C(Nc1nc2c(s1)CCCC2)c1ccncc1`, the Ratio is 0.002.

`CCc1sc(-c2ccccc2C(C)=O)cc1C(=O)Nc1nc2c(s1)CCCC2`: the Ratio came out at 0.312.

Regarding `CCc1oc(-c2ccccc2C(C)=O)cc1C(=O)Nc1nc2c(s1)CCCC2`, the Ratio turned out to be 0.278.

In the case of `COC(=O)c1ccc(NC(=O)c2cc(C)oc2C)nc1`, the Ratio stood at 0.076.

With `CC(=O)Oc1cccc(-c2cc(C(=O)Nc3nc4c(s3)CCC4)c(C)o2)c1`, the Ratio was -0.019.

For the compound `COc1ccccc1-c1cc(C(=O)Nc2nc3c(s2)CCC3)c(C)o1`, the Ratio was -0.023.

On to `Cc1oc(CCC(=O)N(C)C)cc1C(=O)Nc1nc2c(s1)CCC2`, for which the Ratio is 0.178.

For the compound `CC(=O)Oc1ccccc1-c1cc(C(=O)Nc2nc3c(s2)CCC3)c(C)o1`, the Ratio is -0.012.

`CC(=O)c1ccccc1-c1cc(C(=O)Nc2nc3c(s2)CCCC3)cs1`: the Ratio is 0.145.

Another assay deals with T1, Hexokinase-4 (Homo sapiens). Kind of assay: Activation of human recombinant glucokinase expressed in Escherichia coli coexpressing G6PDH at 10 uM using 20 mM glucose measured as ratio of enzyme activation in treated to untreated control by G6PDH coupled continuous spectrophotometric assay.
`O=C(Nc1nc(C2CCCCC2)cs1)c1ccccc1`: the Ratio was 1.06.

Turning to `Cc1nc(C)c(C(=O)Nc2nc3c(s2)CCCC3)s1`, the Ratio was found to be 0.89.

As for `Cc1oc(-c2cccc(C#N)c2)cc1C(=O)Nc1nc2c(s1)CCC2`, the Ratio worked out at 0.85.

As for `Cc1cc(C(=O)Nc2nc3c(s2)C2CCC3C2)c(C)o1` (centres undefined), the Ratio was 1.02.

For `CCc1oc(-c2ccccc2C(C)=O)cc1C(=O)Nc1nc2c(s1)CCC2`, the Ratio was found to be 1.41.

With `CNC(=O)CCc1cc(C(=O)Nc2nc3c(s2)CCC3)c(C)o1`, the Ratio amounted to 1.04.

In the case of `Cc1cc(C(=O)Nc2nc3c(s2)CCC3(C)C)c(C)o1`, the Ratio is 0.95.

In the case of `Cc1oc(-c2ccccc2C(=O)N(C)C)cc1C(=O)Nc1nc2c(s1)CCC2`, the Ratio turned out to be 0.96.

Take `CC(=O)c1ccccc1-c1cc(C(=O)Nc2nc3c(s2)CCC3)c(C)o1`: the Ratio is 1.63.

In the case of `Nc1ccc2sc(NC(=O)c3ccccc3)nc2c1`, the Ratio was 1.02.

As to `CC(=O)NCc1cc(C(=O)Nc2nc3c(s2)CCC3)c(C)o1`, the Ratio was determined as 1.11.

Take `Cc1cc(C(=O)Nc2nc3c(o2)CCCC3)c(C)o1`: the Ratio came out at 0.92.

For the compound `O=C(Nc1nc2c(s1)CCCC2)c1ccncc1`, the Ratio worked out at 0.93.

Turning to `CCc1sc(-c2ccccc2C(C)=O)cc1C(=O)Nc1nc2c(s1)CCCC2`, the Ratio was 1.23.

In the case of `CCc1oc(-c2ccccc2C(C)=O)cc1C(=O)Nc1nc2c(s1)CCCC2`, the Ratio came to 1.25.

Regarding `COC(=O)c1ccc(NC(=O)c2cc(C)oc2C)nc1`, the Ratio was determined as 1.19.

As for `CC(=O)Oc1cccc(-c2cc(C(=O)Nc3nc4c(s3)CCC4)c(C)o2)c1`, the Ratio worked out at 0.92.

In the case of `COc1ccccc1-c1cc(C(=O)Nc2nc3c(s2)CCC3)c(C)o1`, the Ratio stood at 0.93.

In the case of `Cc1oc(CCC(=O)N(C)C)cc1C(=O)Nc1nc2c(s1)CCC2`, the Ratio was 1.29.

With `CC(=O)Oc1ccccc1-c1cc(C(=O)Nc2nc3c(s2)CCC3)c(C)o1`, the Ratio came out at 0.88.

As for `CC(=O)c1ccccc1-c1cc(C(=O)Nc2nc3c(s2)CCCC3)cs1`, the Ratio was determined as 1.26.

A further assay has the same target. In words: Activation of human recombinant glucokinase expressed in Escherichia coli coexpressing G6PDH at 10 uM using 5 mM glucose measured as ratio of enzyme activation in treated to untreated control by G6PDH coupled continuous spectrophotometric assay.
With `O=C(Nc1nc(C2CCCCC2)cs1)c1ccccc1`, the Ratio came to 1.35.

Consider `Cc1nc(C)c(C(=O)Nc2nc3c(s2)CCCC3)s1`, for which the Ratio stood at 1.04.

Turning to `Cc1oc(-c2cccc(C#N)c2)cc1C(=O)Nc1nc2c(s1)CCC2`, the Ratio was determined as 0.99.

As for `Cc1cc(C(=O)Nc2nc3c(s2)C2CCC3C2)c(C)o1` (centres undefined), the Ratio amounted to 1.25.

For `CCc1oc(-c2ccccc2C(C)=O)cc1C(=O)Nc1nc2c(s1)CCC2`, the Ratio was determined as 1.64.

As for `CNC(=O)CCc1cc(C(=O)Nc2nc3c(s2)CCC3)c(C)o1`, the Ratio came out at 1.12.

Take `Cc1cc(C(=O)Nc2nc3c(s2)CCC3(C)C)c(C)o1`: the Ratio turned out to be 1.

In the case of `Cc1oc(-c2ccccc2C(=O)N(C)C)cc1C(=O)Nc1nc2c(s1)CCC2`, the Ratio was 0.96.

In the case of `CC(=O)c1ccccc1-c1cc(C(=O)Nc2nc3c(s2)CCC3)c(C)o1`, the Ratio came out at 2.43.

As to `Nc1ccc2sc(NC(=O)c3ccccc3)nc2c1`, the Ratio was found to be 1.6.

With `CC(=O)NCc1cc(C(=O)Nc2nc3c(s2)CCC3)c(C)o1`, the Ratio amounted to 1.4.

As to `Cc1cc(C(=O)Nc2nc3c(o2)CCCC3)c(C)o1`, the Ratio came out at 0.9.

For `O=C(Nc1nc2c(s1)CCCC2)c1ccncc1`, the Ratio turned out to be 1.01.

Take `CCc1sc(-c2ccccc2C(C)=O)cc1C(=O)Nc1nc2c(s1)CCCC2`: the Ratio was 2.22.

For `CCc1oc(-c2ccccc2C(C)=O)cc1C(=O)Nc1nc2c(s1)CCCC2`, the Ratio worked out at 1.89.

For `COC(=O)c1ccc(NC(=O)c2cc(C)oc2C)nc1`, the Ratio came out at 1.33.

In the case of `CC(=O)Oc1cccc(-c2cc(C(=O)Nc3nc4c(s3)CCC4)c(C)o2)c1`, the Ratio is 0.94.

For the compound `COc1ccccc1-c1cc(C(=O)Nc2nc3c(s2)CCC3)c(C)o1`, the Ratio is 0.92.

Consider `Cc1oc(CCC(=O)N(C)C)cc1C(=O)Nc1nc2c(s1)CCC2`, for which the Ratio worked out at 1.62.

With `CC(=O)Oc1ccccc1-c1cc(C(=O)Nc2nc3c(s2)CCC3)c(C)o1`, the Ratio came to 0.95.

Turning to `CC(=O)c1ccccc1-c1cc(C(=O)Nc2nc3c(s2)CCCC3)cs1`, the Ratio was found to be 1.57.

The target is the same in the next assay. In words: Activation of human recombinant glucokinase expressed in Escherichia coli coexpressing G6PDH at 10 uM using 20 mM glucose measured as ratio of enzyme activation in compound treated to Ro-28-1675 by G6PDH coupled continuous spectrophotometric assay.
On to `O=C(Nc1nc(C2CCCCC2)cs1)c1ccccc1`, for which the Ratio was 0.029.

For `Cc1nc(C)c(C(=O)Nc2nc3c(s2)CCCC3)s1`, the Ratio was -0.066.

`Cc1oc(-c2cccc(C#N)c2)cc1C(=O)Nc1nc2c(s1)CCC2`: the Ratio is -0.09.

For the compound `Cc1cc(C(=O)Nc2nc3c(s2)C2CCC3C2)c(C)o1` (centres undefined), the Ratio was found to be 0.012.

For the compound `CCc1oc(-c2ccccc2C(C)=O)cc1C(=O)Nc1nc2c(s1)CCC2`, the Ratio came to 0.361.

Take `CNC(=O)CCc1cc(C(=O)Nc2nc3c(s2)CCC3)c(C)o1`: the Ratio amounted to 0.027.

Take `Cc1cc(C(=O)Nc2nc3c(s2)CCC3(C)C)c(C)o1`: the Ratio was -0.032.

As for `Cc1oc(-c2ccccc2C(=O)N(C)C)cc1C(=O)Nc1nc2c(s1)CCC2`, the Ratio is -0.026.

For the compound `CC(=O)c1ccccc1-c1cc(C(=O)Nc2nc3c(s2)CCC3)c(C)o1`, the Ratio was found to be 0.384.

As to `Nc1ccc2sc(NC(=O)c3ccccc3)nc2c1`, the Ratio was -0.051.

`CC(=O)NCc1cc(C(=O)Nc2nc3c(s2)CCC3)c(C)o1`: the Ratio was 0.081.

With `Cc1cc(C(=O)Nc2nc3c(o2)CCCC3)c(C)o1`, the Ratio is -0.048.

As for `O=C(Nc1nc2c(s1)CCCC2)c1ccncc1`, the Ratio is -0.033.

On to `CCc1sc(-c2ccccc2C(C)=O)cc1C(=O)Nc1nc2c(s1)CCCC2`, for which the Ratio is 0.182.

As for `CCc1oc(-c2ccccc2C(C)=O)cc1C(=O)Nc1nc2c(s1)CCCC2`, the Ratio came to 0.194.

As to `COC(=O)c1ccc(NC(=O)c2cc(C)oc2C)nc1`, the Ratio was determined as 0.114.

As to `CC(=O)Oc1cccc(-c2cc(C(=O)Nc3nc4c(s3)CCC4)c(C)o2)c1`, the Ratio was -0.047.

In the case of `COc1ccccc1-c1cc(C(=O)Nc2nc3c(s2)CCC3)c(C)o1`, the Ratio was -0.046.

In the case of `Cc1oc(CCC(=O)N(C)C)cc1C(=O)Nc1nc2c(s1)CCC2`, the Ratio was found to be 0.187.

For `CC(=O)Oc1ccccc1-c1cc(C(=O)Nc2nc3c(s2)CCC3)c(C)o1`, the Ratio is -0.072.

In the case of `CC(=O)c1ccccc1-c1cc(C(=O)Nc2nc3c(s2)CCCC3)cs1`, the Ratio was 0.214.
